Data reported in patent US9062041B2 (Bayer Intellectual Property GmbH, priority 2011, dated 2015).

Experiments:
Type in all cases: cell-based
[1] = target: EP2 subtype of the human PGE2 receptor (Homo sapiens, UniProt P43116); experiment: cAMP antagonism test on the human EP2 receptor (HTRF cAMP detection); conditions: hEP2 receptor, read-out: Antagonism hEP2 IC50
In short: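 Cells expressing human EP2 preincubated 20 min at RT with compound (0.8 nM–16.5 μM), then stimulated 60 min with PGE2 (3× solution 1.5 nM) in PBS-IBMX. After 20 min lysis, cAMP measured by competitive HTRF with cAMP-d2 and Eu cryptate anti-cAMP antibody (665/620 nm ratio).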

[2] = target: EP4 subtype of the human PGE2 receptor (Homo sapiens, UniProt P35408); experiment: cAMP antagonism test on the human EP4 receptor (HTRF cAMP detection); conditions: selectivity towards hEP4, IC50 measured by cAMP antagonism test
In short: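 Cells expressing human EP4 preincubated 20 min at RT with compound (0.8 nM–16.5 μM), then stimulated with PGE2 (0.3 nM in 3× solution, with IBMX) 60 min at RT. After lysis, cAMP measured by HTRF competition (665/620 nm ratio); antagonism seen as rise in FRET signal.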

human PGD receptor = target: T1, human PGD receptor (Homo sapiens, UniProt Q13258); experiment: cAMP antagonism test on the human prostaglandin D receptor (HTRF cAMP detection); conditions: selectivity towards hDP, IC50 measured by cAMP antagonism test
T1 sequence (Q13258 1-359): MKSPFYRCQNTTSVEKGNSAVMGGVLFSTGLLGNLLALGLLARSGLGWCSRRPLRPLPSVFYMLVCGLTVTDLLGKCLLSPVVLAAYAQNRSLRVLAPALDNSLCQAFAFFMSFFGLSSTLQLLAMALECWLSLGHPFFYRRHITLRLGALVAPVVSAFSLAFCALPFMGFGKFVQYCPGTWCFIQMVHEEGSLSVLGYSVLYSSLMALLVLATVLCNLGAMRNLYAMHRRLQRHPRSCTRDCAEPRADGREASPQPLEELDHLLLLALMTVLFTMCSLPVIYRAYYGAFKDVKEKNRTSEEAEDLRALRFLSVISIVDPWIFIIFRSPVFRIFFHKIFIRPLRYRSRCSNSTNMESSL
In short: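 Cells pre-mixed with cAMP-d2 were preincubated with compound (0.8 nM–16.5 μM) for 20 min at RT, then stimulated with 3× PGD2 solution (6 nM, in PBS-IBMX) for 30 min at RT. After lysis (20 min), HTRF read at 665/620 nm; antagonism seen as rise in FRET ratio.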

EP2 subtype of the human PGE2 receptor, sequence (P43116 whole entry): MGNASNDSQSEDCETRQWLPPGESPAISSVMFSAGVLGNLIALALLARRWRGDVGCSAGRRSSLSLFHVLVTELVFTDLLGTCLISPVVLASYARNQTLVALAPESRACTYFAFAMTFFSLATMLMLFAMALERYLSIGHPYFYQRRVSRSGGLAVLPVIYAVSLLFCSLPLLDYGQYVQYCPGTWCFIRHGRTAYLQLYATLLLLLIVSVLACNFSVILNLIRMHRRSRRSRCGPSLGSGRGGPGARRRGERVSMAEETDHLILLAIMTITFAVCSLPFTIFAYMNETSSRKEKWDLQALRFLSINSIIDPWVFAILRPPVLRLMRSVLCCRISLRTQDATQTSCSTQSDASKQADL
EP4 subtype of the human PGE2 receptor, sequence (P35408 whole entry): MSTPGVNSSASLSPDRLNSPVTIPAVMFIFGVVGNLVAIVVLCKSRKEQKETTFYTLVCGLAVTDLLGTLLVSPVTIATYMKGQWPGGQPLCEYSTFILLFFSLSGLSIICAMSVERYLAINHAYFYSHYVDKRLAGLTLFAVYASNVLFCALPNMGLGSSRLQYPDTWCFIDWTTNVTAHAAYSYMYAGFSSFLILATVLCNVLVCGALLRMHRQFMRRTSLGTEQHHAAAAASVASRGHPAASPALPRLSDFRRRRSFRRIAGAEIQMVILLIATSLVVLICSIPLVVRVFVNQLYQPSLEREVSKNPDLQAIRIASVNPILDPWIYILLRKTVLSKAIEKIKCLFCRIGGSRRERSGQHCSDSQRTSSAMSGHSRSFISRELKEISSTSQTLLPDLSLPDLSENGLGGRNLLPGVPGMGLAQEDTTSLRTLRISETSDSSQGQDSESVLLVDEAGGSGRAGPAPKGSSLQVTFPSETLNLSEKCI

Structure (SMILES)	IC50 [1] [nM]	Selectivity hEP2/hEP4 [2]	Selectivity hEP2/hDP (human PGD receptor)
Cc1c(C(=O)NCCOCC(F)(F)F)ccc2nn(CC3CCN(C(=O)c4ccc(C5CC5)cc4)CC3)cc12 [Example 95, 2-{[1-(4-cyclo-propylbenzoyl)-piperidin-4-yl]-methyl}-4-methyl-N-[2-(2,2,2-tri-fluoroethoxy)ethyl]-2H-indazol-5-carboxamide]	6.18	xxx (xxx > 100)	xxx (xxx > 100)
COCCNC(=O)c1ccc2nn(CC3CCN(C(=O)c4ccc(SC(F)(F)F)cc4)CC3)cc2c1OC [Example 269, 4-methoxy-N-(2-methoxyethyl)-2-[(1-{4-[(trifluoromethyl)sulphanyl]benzoyl}-piperidin-4-yl)methyl]-2H-indazol-5-carboxamide]	7.54	xxx (xxx > 100)	xxx (xxx > 100)
Cc1c(C(=O)NCC2CC2)ccc2nn(CC3CCN(C(=O)c4ccc(Cl)cc4)CC3)cc12 [Example 402, 2-{[1-(4-chlorobenzoyl)piperidin-4-yl]methyl}-N-(cyclopropylmethyl)-4-methyl-2H-indazol-5-carboxamide]	77.7	xxx (xxx > 100)	xxx (xxx > 100)
COCCNC(=O)c1ccc2nn(CC3CCN(C(=O)c4ccc(Cl)cc4)CC3)cc2c1OC [Example 262, 2-{[1-(4-chlorobenzoyl)piperidin-4-yl]methyl}-4-methoxy-N-(2-methoxyethyl)-2H-indazol-5-carboxamide]	33.4	xxx (xxx > 100)	xxx (xxx > 100)
COCCNC(=O)c1ccc2nn(CC3CCN(C(=O)c4cccc(C)c4)CC3)cc2c1C [Example 27, N-(2-methoxyethyl)-4-methyl-2-{[1-(3-methylbenzoyl)-piperidin-4-yl]-methyl}-2H-indazol-5-carboxamide]	19.3	xxx (xxx > 100)	xxx (xxx > 100)
O=C(NCCOCC1CC1)c1ccc2nn(CC3CCN(C(=O)c4ccc(Oc5ccc(F)cc5)cc4)CC3)cc2c1OCC(F)(F)F [Example 236, N-[2-(cyclopropylmethoxy)ethyl]-2-({1-[4-(4-fluorophenoxy)benzoyl]piperidin-4-yl}methyl)-4-(2,2,2-trifluoroethoxy)-2H-indazol-5-carboxamide]	57.5	xxx (xxx > 100)	xxx (xxx > 100)
Cc1cc2nn(CC3CN(C(=O)c4ccc(Cl)cc4)C3)cc2cc1C(=O)NCCOC(F)(F)F [Example 197, 2-{[1-(4-chlorobenzoyl)azetidin-3-yl]methyl}-6-methyl-N-[2-(trifluoromethoxy)ethyl]-2H-indazol-5-carboxamide]	63.2	xxx (xxx > 100)	xxx (xxx > 100)
COCCNC(=O)c1ccc2nn(CC3CCN(C(=O)c4ccc(Oc5ncccn5)cc4)CC3)cc2c1C [Example 342, N-(2-methoxyethyl)-4-methyl-2-({1-[4-(pyrimidin-2-yloxy)benzoyl]piperidin-4-yl}methyl)-2H-indazol-5-carboxamide]	103	xxx (xxx > 100)	xxx (xxx > 100)
COCCNC(=O)c1ccc2nn(CC3CCN(C(=O)c4ccc(N5CCOCC5)cc4)CC3)cc2c1C [Example 4, N-(2-methoxyethyl)-4-methyl-2-{[1-(4-morpholinobenzoyl)piperidin-4-yl]methyl}-2H-indazol-5-carboxamide]	68.1	xxx (xxx > 100)	xxx (xxx > 100)
COC(C)CNC(=O)c1cc2cn(CC3CN(C(=O)c4ccc(Cl)cc4)C3)nc2cc1C (racemic) [Example 192, (+/−)-2-{[1-(4-chlorobenzoyl)azetidin-3-yl]methyl}-N-(2-methoxypropyl)-6-methyl-2H-indazol-5-carboxamide]	206	xx (xx: 10-100)	xx (xx: 10-100)
Cc1c(C(=O)NCC(F)(F)F)ccc2nn(CC3CN(C(=O)c4ccc(OC(F)(F)F)cc4)C3)cc12 [Example 130, 4-methyl-N-(2,2,2-trifluoroethyl)-2-({1-[4-(trifluoromethoxy)benzoyl]azetidin-3-yl}methyl)-2H-indazol-5-carboxamide]	241	xx (xx: 10-100)	xx (xx: 10-100)
COCCNC(=O)c1cc2cn(CC3CN(C(=O)c4ccc(-c5ccc(F)cc5)cc4)C3)nc2cc1C [Example 204, 2-({1-[(4′-fluorobiphenyl-4-yl)carbonyl]azetidin-3-yl}methyl)-N-(2-methoxy-ethyl)-6-methyl-2H-indazol-5-carboxamide]	10	xxx (xxx > 100)	xxx (xxx > 100)
Cc1cc2nn(CC3CN(C(=O)c4ccc(OC(F)(F)F)cc4)C3)cc2cc1C(=O)NCC(F)(F)F [Example 195, 6-methyl-N-(2,2,2-trifluoroethyl)-2-({1-[4-(trifluoromethoxy)benzoyl]azetidin-3-yl}methyl)-2H-indazol-5-carboxamide]	227	xx (xx: 10-100)	xx (xx: 10-100)
COCCNC(=O)c1ccc2nn(CC3CCN(C(=O)c4ccc(C5CC5)cc4)CC3)cc2c1OC(F)F [Example 228, 2-{[1-(4-cyclopropylbenzoyl)piperidin-4-yl]methyl}-4-(difluoromethoxy)-N-(2-methoxyethyl)-2H-indazol-5-carboxamide]	8.09	xxx (xxx > 100)	xxx (xxx > 100)
Cc1c(C(=O)NCCS(C)(=O)=O)ccc2nn(CC3CCN(C(=O)c4ccc(Oc5ccc(C(F)(F)F)cn5)cc4)CC3)cc12 [Example 396, N-(2-mesylethyl)-4-methyl-2-{[1-(4-{[5-(trifluoromethyl)pyridin-2-yl]oxy}-benzoyl)piperidin-4-yl]methyl}-2H-indazol-5-carboxamide]	18	xxx (xxx > 100)	xxx (xxx > 100)
COCCNC(=O)c1ccc2nn(CC3CCN(C(=O)c4ccc(S(F)(F)(F)(F)F)cc4)CC3)cc2c1OC [Example 268, 4-methoxy-N-(2-methoxyethyl)-2-({1-[4-(pentafluoro-λ^6-sulphanyl)benzoyl]-piperidin-4-yl}methyl)-2H-indazol-5-carboxamide]	22.9	xxx (xxx > 100)	xxx (xxx > 100)
COCCNC(=O)c1ccc2nn(CC3CCN(C(=O)c4ccc(-c5cccc(OC)n5)cc4)CC3)cc2c1C [Example 378, N-(2-methoxyethyl)-2-({1-[4-(6-methoxypyridin-2-yl)benzoyl]piperidin-4-yl}methyl)-4-methyl-2H-indazol-5-carboxamide]	7.77	xxx (xxx > 100)	xxx (xxx > 100)
Cc1c(C(=O)NCC(F)(F)F)ccc2nn(CC3CN(C(=O)c4ccc(Oc5ccc(C(F)(F)F)cc5)cc4)C3)cc12 [Example 164, 4-methyl-N-(2,2,2-trifluoroethyl)-2-[(1-{4-[4-(trifluoromethyl)phenoxy]benzoyl}azetidin-3-yl)methyl]-2H-indazol-5-carboxamide]	10.9	xxx (xxx > 100)	xxx (xxx > 100)
Cc1c(C(=O)NCCOCC2CC2)ccc2nn(CC3CN(C(=O)c4ccc(-c5ccc(F)cc5)cc4)C3)cc12 [Example 157, N-[2-(cyclopropylmethoxy)ethyl]-2-({1-[(4′-fluorobiphenyl-4-yl)carbonyl]azetidin-3-yl}methyl)-4-methyl-2H-indazol-5-carboxamide]	13.6	xxx (xxx > 100)	xxx (xxx > 100)
